Results published in paper PMC3407927, “Cyclisation Increases the Stability of the Sea Anemone Peptide APETx2 but Decreases Its Activity at Acid-Sensing Ion Channel 3” (Marine Drugs, 2012).
Where a SMILES comes first, the peptide text is derived from it. Bridges are numbered along the chain shown (N, C = ends). Where no end group is shown, it is not given here.

Experiments:
pepsin [1] = tested on: T1, pepsin; experiment: Simulated gastric fluid (SGF) stability assay; type: in vitro ADME; settings: simulated gastric fluid (SGF) with pepsin; SGF: 6.2 mg/mL pepsin, 30 mM NaCl, pH 1.9; 20 μM peptide; 37 °C; samples 0-480 min; RP-HPLC; each time point in triplicate
T1 construct: purchased Sigma Aldrich
Procedure: (§1) The following protocol was modified from a published method: Wild-type APETx2 and cyclic analogues were separately diluted into 350 μL SGF (6.2 mg/mL pepsin, 30 mM NaCl, pH 1.9) to a final peptide concentration of 20 μM. Reactions were started with the addition of the peptides and the mixtures were incubated at 37 °C. 35-μL samples were taken at 0, 15, 30, 45, 60, 120, 240 and 480 min and mixed with 5 μL pepstatin A to quench the reaction (3.3 mg/mL dissolved in ethanol). Progress was monitored using RP-HPLC and each time point was investigated in triplicate.

trypsin = experiment: Trypsin stability assay; type: in vitro ADME; settings: 5 mM EDTA, pH 8.0, 20 μM peptide, 37 °C, RP-HPLC; for half-life at 20 μM / Trypsin stability assay: half-life: 1 μg trypsin in 500 μL 20 mM Tris, samples 0-48 h, each time point in triplicate
Procedure: The following protocol was modified from a previous published method: Wild-type APETx2 and cyclic analogues were diluted into 500 μL trypsin buffer (20 mM Tris, 5 mM EDTA, pH 8.0) to a final concentration of 20 μM. Reactions were started by adding 1 μg trypsin to each sample. A 35-μL sample was used for each time point and quenched by mixing with 35 μL 0.2% TFA. Protease digestion was monitored using analytical RP-HPLC. Reactions were incubated at 37 °C and samples were taken at 0, 0.5, 1, 2, 4, 12, 24 and 48 h. All time points were investigated in triplicate.

pepsin [2] = molecular target: T2, pepsin (Sus scrofa, UniProt P00791); experiment: Simulated gastric fluid (SGF) stability assay; type: in vitro ADME; settings: 20 μM peptide, RP-HPLC
T2 construct: purchased Sigma Aldrich
T2 sequence (P00791 60-385): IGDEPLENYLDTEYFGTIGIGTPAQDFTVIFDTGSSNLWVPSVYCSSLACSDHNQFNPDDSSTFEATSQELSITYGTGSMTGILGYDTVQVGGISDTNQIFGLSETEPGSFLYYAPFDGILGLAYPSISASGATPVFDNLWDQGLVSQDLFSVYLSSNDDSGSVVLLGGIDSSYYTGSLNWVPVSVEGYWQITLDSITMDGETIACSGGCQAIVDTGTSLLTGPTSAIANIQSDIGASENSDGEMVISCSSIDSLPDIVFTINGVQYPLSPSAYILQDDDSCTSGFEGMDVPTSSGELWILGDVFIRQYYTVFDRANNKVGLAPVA
Procedure: as §1

rat ASIC3 = molecular target: T3, rat ASIC3 (Rattus norvegicus, UniProt O35240); experiment: Two-electrode voltage-clamp electrophysiology on Xenopus laevis oocytes expressing homomeric rat ASIC3; type: cell-based; settings: n = 6
T3 construct: expressed in transfected cells; host or cells: Xenopus laevis oocytes (cRNA injection)
T3 sequence (O35240 1-533): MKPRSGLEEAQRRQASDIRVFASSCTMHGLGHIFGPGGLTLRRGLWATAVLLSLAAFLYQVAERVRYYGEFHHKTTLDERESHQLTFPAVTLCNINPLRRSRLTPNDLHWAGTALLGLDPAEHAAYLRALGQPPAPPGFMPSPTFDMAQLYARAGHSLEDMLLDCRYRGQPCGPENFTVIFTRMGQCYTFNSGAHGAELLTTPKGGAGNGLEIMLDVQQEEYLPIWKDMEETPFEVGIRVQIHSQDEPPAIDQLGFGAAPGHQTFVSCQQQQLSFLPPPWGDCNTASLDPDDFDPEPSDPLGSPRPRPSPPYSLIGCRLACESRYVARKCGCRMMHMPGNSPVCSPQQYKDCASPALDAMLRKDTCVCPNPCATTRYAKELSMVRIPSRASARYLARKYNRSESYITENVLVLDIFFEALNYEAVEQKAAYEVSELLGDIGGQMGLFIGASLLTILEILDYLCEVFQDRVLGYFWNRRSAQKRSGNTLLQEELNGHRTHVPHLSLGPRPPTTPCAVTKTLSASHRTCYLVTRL
Procedure: The biological activity of wild-type APETx2 was compared with that of truncations and cyclic analogues using voltage-clamp electrophysiology experiments on Xenopus laevis oocytes expressing homomeric rat ASIC3. […] At 1000 nM, a concentration of APETx2 that normally causes >90% inhibition of ASIC3 [18], all three cyclic analogues had little activity (~10% inhibition, n = 6) (Figure 5). Although a full concentration-effect curve was not obtained, there is an approximate 125-fold decrease in activity for all three cyclic analogues based on the concentration that causes 10% inhibition (~8 nM for wild-type APETx2 vs. 1000 nM for cyclic APETx2).
Oocytes were obtained from Xenopus laevis frogs and treated with collagenase (Sigma type I) for defolliculation. cRNA of rat ASIC3 was synthesised using an mMessage mMachine cRNA transcription kit and healthy stage V–VI oocytes injected with 4 ng rat ASIC3 cRNA (40 nL of 100 ng/μL). Oocytes were kept at 17 °C in ND96 solution (96 mM NaCl, 2 mM KCl, 1 mM CaCl2, 2 mM MgCl2, 5 mM HEPES, 5 mM pyruvic acid, 50 µg/mL gentamicin, 2.5% fetal horse serum, pH 7.4). Membrane currents were recorded 2–6 days post cRNA injection under voltage-clamp (Axoclamp 900 A amplifier, Molecular Devices, Sunnyvale, CA, USA) using two standard glass microelectrodes with resistances of 0.5–1 MΩ when filled with 3 M KCl solution. […]

[3] = Solution stability under lab storage conditions; type: physicochemical; settings: dissolved in water and kept at 4 °C; unpublished observations

cyclo(ACSCGNSKGIYWFYRPSCPTDRGYTGSCRYFLGTCCTPADSAGASGSAGT) (disulfide 2-35, 4-28, 18-36) [cAPETx2_8RL]
half-life at 20 μM (pepsin [1]): 100 min | half-life at 20 μM (trypsin; trypsin in Tris/EDTA buffer): 5.46 days

cyclo(ACSCGNSKGIYWFYRPSCPTDRGYTGSCRYFLGTCCTPADAGASGSAGT) (disulfide 2-35, 4-28, 18-36) [cAPETx2_7RL]
half-life at 20 μM (pepsin [1]): 165 min | half-life at 20 μM (trypsin; trypsin in Tris/EDTA buffer): 5.58 days

GTACSCGNSKGIYWFYRPSCPTDRGYTGSCRYFLGTCCTPAD (disulfide 4-37, 6-30, 20-38) [APETx2_wt, APETx2]
half-life at 20 μM (pepsin [1]): ~5 min | time within which peptide is almost totally digested in simulated gastric fluid (pepsin [2]; SGF 6.2 mg/mL pepsin, pH 1.9, 37 °C): ≤ 20 min | Simulated gastric fluid stability assay: half-life (pepsin [2]; SGF: 6.2 mg/mL pepsin, 30 mM NaCl, pH 1.9, 37 °C, samples 0-480 min, each time point in triplicate): 5 min | IC50 (rat ASIC3; Xenopus oocytes, clamped at −60 mV, pH 6 stimulus, ND96 with 0.1% BSA, RT, read-out: IC50 for inhibition of rASIC3 currents): 61 nM | Trypsin stability assay: half-life (trypsin): 2.8 h | Trypsin stability assay: half-life (trypsin; listed as wild-type APETx2): ~ 2.8 h | remaining at 48 h, 20 μM (trypsin; trypsin in Tris/EDTA buffer, 48 h, 1 μg trypsin, 20 mM Tris, triplicate, read-out: peptide remaining intact after 48 h in the presence of trypsin): ~4% | solution stability under lab storage conditions [3]: stable for months

cyclo(ACSCGNSKGIYWFYRPSCPTDRGYTGSCRYFLGTCCTPADGASGSAGT) (disulfide 2-35, 4-28, 18-36) [cAPETx2_6RL]
half-life at 20 μM (pepsin [1]): 114 min | half-life at 20 μM (trypsin; trypsin in Tris/EDTA buffer): 4.33 days

CC[C@H](C)[C@@H]1NC(=O)CNC(=O)[C@H](CCCCN)NC(=O)[C@H](CO)NC(=O)[C@H](CC(N)=O)NC(=O)CNC(=O)[C@@H]2CSSC[C@@H]3NC(=O)[C@H](CO)NC(=O)CNC(=O)[C@H]([C@@H](C)O)NC(=O)[C@H](Cc4ccc(O)cc4)NC(=O)CNC(=O)[C@H](CCCNC(=N)N)NC(=O)[C@H](CC(=O)O)NC(=O)[C@H]([C@@H](C)O)NC(=O)[C@@H]4CCCN4C(=O)[C@H](CSSC[C@@H](C(=O)N[C@H](C(=O)N4CCC[C@H]4C(=O)N[C@@H](C)C(=O)N[C@@H](CC(=O)O)C(=O)O)[C@@H](C)O)NC(=O)[C@H](CSSC[C@H](NC(=O)[C@H](C)N)C(=O)N[C@@H](CO)C(=O)N2)NC(=O)[C@H]([C@@H](C)O)NC(=O)CNC(=O)[C@H](CC(C)C)NC(=O)[C@H](Cc2ccccc2)NC(=O)[C@H](Cc2ccc(O)cc2)NC(=O)[C@H](CCCNC(=N)N)NC3=O)NC(=O)[C@H](CO)NC(=O)[C@@H]2CCCN2C(=O)[C@H](CCCNC(=N)N)NC(=O)[C@H](Cc2ccc(O)cc2)NC(=O)[C@H](Cc2ccccc2)NC(=O)[C@H](Cc2c[nH]c3ccccc23)NC(=O)[C@H](Cc2ccc(O)cc2)NC1=O [APETx2_3–42] (H-ACSCGNSKGIYWFYRPSCPTDRGYTGSCRYFLGTCCTPAD-OH; disulfide 2-35, 4-28, 18-36)
inhibition at 3 µM (rat ASIC3; 3 μM peptide, rat ASIC3 in Xenopus oocytes, read-out: inhibition of ASIC3 currents at 3 μM): ~13%
